The values that follow come from patent US8765746B2 (Millennium Pharmaceuticals, Inc., priority 2010, dated 2014).

SMILES strings stand for the structures.

The target of assay [1] is T1, PI3Kalpha (Homo sapiens, UniProt P42336).
T1 construct: His (N); host or cells: SF9 insect cells (baculovirus)
The assay can be described thus: Human PI3Kα enzyme assay (HTRF). Format: biochemical. To be noted: for inhibition at 1.11 µM: read-out: PI3Kalpha % inh; for PI3Kalpha % inh: at 1.11 μM. The source says: (§1) The catalytic subunits of PI3Ks are cloned into either pDEST8(p110 alpha) or pDEST10(p110beta, p110delta, and p110gamma) as N-terminal His tagged fusion proteins using the Gateway system (Invitrogen, catalog#11804-010 for pDEST8 and 11806-015 for pDEST10). The sequences are verified before recombinant protein expression using the Baculovirus Expression System with Gateway® Technology. The accession numbers for the subunits are as follows:
(§2) The regulatory subunits of PI3Ks are cloned into pDEST8 as un-tagged protein using the Gateway system (Catalog#11804-010). The sequences are verified before recombinant protein expression using the Baculovirus Expression System with Gateway® Technology. The accession numbers for the subunits are as follows:
(§3) For expression of the p110 complexes, the p85 (MOI of 4) is co-infected with p110 alpha, beta, and delta respectively (1MOI) in SF9 cells and harvested at 60 hours post co-infection. P110 gamma was infected at 1 MOI and harvested at 60 hours post infection.
(§4) For purification, PI3Ks are purified by Ni-NTA Agarose (Qiagen #30250) followed by Mono Q 10/100 GL (Ge Healthcare #17-5167-01). VPS34 is purified by Glutathione Sepharose 4 Fast Flow (GE Healthcare #17-5132-03) followed by HiTrap Q (GE Healthcare #17-1153-01).
1) Human PI3Kα enzyme assay method
(§5) 0.5 uL compounds in DMSO are added to wells of a 384 well microtitre plate (Corning 3575). At room temperature: 10 ul PI3K reaction buffer (50 mM Hepes, 5 mM DTT, 150 mM NaCl, 10 mM beta-glycerophosphate, 10 mM MgCl2, 0.25 mM sodium cholate and 0.001% CHAPS, pH 7.00) containing ATP (25 uM, Promega) is added followed immediately by 10 ul PI3K reaction buffer containing di-C8 PI(4,5)P2 (3.5 uM, CellSignals) and PI3Kalpha (0.4875 nM, Millennium Protein Sciences Group) and the mixture is incubated with shaking at room temperature for 30 minutes. Then 5 ul PI3K stop mix (50 mM Hepes, 5 mM DTT, 150 mM NaCl, 0.01% Tween-20, 15 mM EDTA and 25 nM biotin-PI(3,4,5)P3 (Echelon) is added to quench the reaction followed immediately by addition of 5 ul HTRF detection mix (50 mM Hepes, 5 mM DTT, 150 mM NaCl, 0.01% Tween-20, 40 mM KF, 10 nM GST:GRP-1 PH domain (Millennium Protein Sciences Group), 15 nM Streptavidin-XL (CisBio) and 0.375 nM anti-GST Eu++ antibody (CisBio) at pH 7.00). The plates are then incubated for 1 hour at room temperature with shaking and then read on a BMG PheraStar Plus reader.
On the technique in general: Time-resolved FRET reads energy transfer from a long-lived donor to a nearby acceptor.

In assay [2] the target is T2, PI3Kbeta (Homo sapiens, UniProt P42338).
T2 construct: His (N); host or cells: SF9 insect cells (baculovirus)
Description: Human PI3K beta enzyme assay (HTRF, as for PI3K alpha). Format: biochemical. The following applies: for inhibition at 1.11 µM: read-out: PI3Kbeta % inh; for inhibition at 1.11 µM / PI3Kbeta % inh: at 1.11 μM.
Text: as §1, §2, §3, §4, §5
2) Human PI3K beta, delta and gamma isoforms are tested using the procedure described for PI3K alpha above but with the following changes: PI3K beta (5.25 nM), PI3K delta (0.75 nM) and PI3K gamma (5 nM). All isoforms supplied by Millennium Protein Science Group.

T2 sequence (P42338 whole entry): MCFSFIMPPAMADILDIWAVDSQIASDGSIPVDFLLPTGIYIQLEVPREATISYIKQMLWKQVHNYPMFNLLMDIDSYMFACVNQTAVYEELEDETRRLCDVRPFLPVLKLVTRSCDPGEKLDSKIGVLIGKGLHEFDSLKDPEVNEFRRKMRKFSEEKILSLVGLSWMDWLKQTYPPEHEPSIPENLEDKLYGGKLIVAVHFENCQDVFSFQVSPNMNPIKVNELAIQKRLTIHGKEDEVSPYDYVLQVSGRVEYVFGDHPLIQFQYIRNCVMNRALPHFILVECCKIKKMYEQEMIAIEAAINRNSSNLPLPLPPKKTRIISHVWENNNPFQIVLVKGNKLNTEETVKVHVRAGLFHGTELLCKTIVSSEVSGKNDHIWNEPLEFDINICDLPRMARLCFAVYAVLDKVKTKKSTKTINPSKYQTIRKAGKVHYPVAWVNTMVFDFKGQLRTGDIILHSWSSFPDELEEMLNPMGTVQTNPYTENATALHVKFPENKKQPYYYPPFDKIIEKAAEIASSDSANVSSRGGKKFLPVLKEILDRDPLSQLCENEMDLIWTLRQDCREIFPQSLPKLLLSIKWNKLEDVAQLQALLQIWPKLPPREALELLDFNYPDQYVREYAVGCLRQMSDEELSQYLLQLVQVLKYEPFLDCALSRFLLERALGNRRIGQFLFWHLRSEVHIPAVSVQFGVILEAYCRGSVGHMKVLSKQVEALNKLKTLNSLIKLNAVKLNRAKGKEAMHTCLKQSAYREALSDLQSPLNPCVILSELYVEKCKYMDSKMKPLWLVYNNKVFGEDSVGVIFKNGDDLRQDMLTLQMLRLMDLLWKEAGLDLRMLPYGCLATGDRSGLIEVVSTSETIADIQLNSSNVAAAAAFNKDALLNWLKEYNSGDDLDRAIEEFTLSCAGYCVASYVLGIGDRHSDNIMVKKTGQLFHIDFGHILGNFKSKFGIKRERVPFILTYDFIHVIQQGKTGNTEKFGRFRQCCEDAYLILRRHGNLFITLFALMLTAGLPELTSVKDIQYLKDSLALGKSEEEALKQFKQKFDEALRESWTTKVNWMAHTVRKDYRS
T2 sequence (P27986 whole entry partner): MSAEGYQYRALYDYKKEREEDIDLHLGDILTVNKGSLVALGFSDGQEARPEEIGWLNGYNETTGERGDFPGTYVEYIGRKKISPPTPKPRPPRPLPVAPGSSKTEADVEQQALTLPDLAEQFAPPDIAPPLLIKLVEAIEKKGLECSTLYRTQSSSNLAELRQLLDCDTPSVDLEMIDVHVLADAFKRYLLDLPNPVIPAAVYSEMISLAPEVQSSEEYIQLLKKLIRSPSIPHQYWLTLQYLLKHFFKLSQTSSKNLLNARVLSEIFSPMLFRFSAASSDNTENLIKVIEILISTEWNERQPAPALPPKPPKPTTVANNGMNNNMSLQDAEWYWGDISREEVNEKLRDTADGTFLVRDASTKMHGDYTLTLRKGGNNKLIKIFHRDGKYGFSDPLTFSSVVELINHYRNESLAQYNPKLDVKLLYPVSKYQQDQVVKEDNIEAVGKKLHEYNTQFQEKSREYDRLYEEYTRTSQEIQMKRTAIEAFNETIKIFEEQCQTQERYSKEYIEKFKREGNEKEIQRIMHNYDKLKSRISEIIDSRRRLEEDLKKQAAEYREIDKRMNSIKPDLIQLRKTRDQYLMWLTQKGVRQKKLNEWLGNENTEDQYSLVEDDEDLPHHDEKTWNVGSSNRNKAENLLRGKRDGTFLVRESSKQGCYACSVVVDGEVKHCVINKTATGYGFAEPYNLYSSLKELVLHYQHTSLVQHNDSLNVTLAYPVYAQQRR
T1 sequence (P42336 whole entry): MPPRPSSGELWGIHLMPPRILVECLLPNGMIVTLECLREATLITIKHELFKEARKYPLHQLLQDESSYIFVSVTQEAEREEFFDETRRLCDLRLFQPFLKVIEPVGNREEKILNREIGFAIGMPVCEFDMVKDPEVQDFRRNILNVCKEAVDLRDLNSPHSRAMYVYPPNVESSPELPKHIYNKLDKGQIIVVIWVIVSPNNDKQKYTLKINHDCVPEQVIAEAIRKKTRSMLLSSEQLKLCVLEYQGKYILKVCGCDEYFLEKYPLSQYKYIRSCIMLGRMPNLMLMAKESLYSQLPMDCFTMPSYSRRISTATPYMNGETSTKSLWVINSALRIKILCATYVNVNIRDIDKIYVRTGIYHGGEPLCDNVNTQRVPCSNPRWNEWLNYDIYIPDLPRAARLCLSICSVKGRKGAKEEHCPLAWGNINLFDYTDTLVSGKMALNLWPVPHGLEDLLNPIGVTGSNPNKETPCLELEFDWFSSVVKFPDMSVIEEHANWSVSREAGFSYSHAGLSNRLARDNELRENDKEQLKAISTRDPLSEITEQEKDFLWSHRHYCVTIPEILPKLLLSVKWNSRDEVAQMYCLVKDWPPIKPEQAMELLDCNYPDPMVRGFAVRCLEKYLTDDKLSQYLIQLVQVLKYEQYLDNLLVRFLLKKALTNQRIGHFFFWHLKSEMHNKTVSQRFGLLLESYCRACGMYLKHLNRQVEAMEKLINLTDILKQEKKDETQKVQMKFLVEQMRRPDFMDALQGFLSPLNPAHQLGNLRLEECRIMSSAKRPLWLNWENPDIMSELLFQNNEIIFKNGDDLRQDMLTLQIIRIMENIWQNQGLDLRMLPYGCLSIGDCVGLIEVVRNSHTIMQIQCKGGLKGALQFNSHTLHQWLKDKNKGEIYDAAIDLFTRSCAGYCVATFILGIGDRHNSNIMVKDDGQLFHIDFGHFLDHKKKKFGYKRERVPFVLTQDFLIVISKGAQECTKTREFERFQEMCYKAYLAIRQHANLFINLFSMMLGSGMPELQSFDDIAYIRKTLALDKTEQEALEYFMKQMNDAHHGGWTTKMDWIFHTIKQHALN
T1 sequence (P27986 whole entry partner): as the sequence (P27986 whole entry partner) above

As for `O=C1NCC(c2ccc(Cl)cc2)c2c1sc(N1CCOCC1)c2CO` (single isomer, unassigned) [Compound 178, 4-(4-chlorophenyl)-3-(hydroxymethyl)-2-(morpholin-4-yl)-5,6-dihydrothieno[2,3-c]pyridin-7(4H)-one], the inhibition at 1.11 µM worked out at 4.71% in assay [1] and 40.2% in assay [2].
On the same counts, the results for `NC(=O)CN1CC(c2ccc(Cl)cc2)c2cc(N3CCOCC3)sc2C1=O` (stereo not shown) [Compound 214, 2-(4-(4-chlorophenyl)-2-morpholino-7-oxo-4,5-dihydrothieno[2,3-c]pyridin-6(7H)-yl)acetamide] are 5.13% and 110%.
Taken in the same sequence, the figures for `COCCNC(=O)[C@@H]1NC(=O)c2sc(N3CCOCC3)cc2[C@H]1c1ccc(Cl)cc1` [Compound 177] were 29.6% and 58.5%.
For the compound `N#Cc1c(N2CCOCC2)sc2c1C(c1ccc(Cl)c(Cl)c1)NC2=O` (stereo not shown) [Compound 187], the inhibition at 1.11 µM was 38.4% in assay [1] and 104% in assay [2].
Taken in the same sequence, the figures for `CN(C)CC#Cc1c(N2CCOCC2)sc2c1C(c1ccc(Cl)cc1)CNC2=O` (stereo not shown) [Compound 130] were 58.1% and 116%.
Taken in the same sequence, the figures for `CNC(=O)[C@@H]1NC(=O)c2sc(-c3ccnc(C)c3)cc2[C@H]1c1ccc(Cl)cc1` (relative stereo) [Compound 138, rel-(4R,5R)-4-(4-chlorophenyl)-N-methyl-2-(2-methylpyridin-4-yl)-7-oxo-4,5,6,7-tetrahydrothieno[2,3-c]pyridine-5-carboxamide] were 7.29% and 64.6%.
For `N#Cc1c(N2CCOCC2)sc2c1C(c1ccc(Cl)c(Cl)c1)CCNC2=O` (stereo not shown) [Compound 116], the PI3Kalpha % inh in assay [1] is on record as 36.43%. In assay [2], this compound gave a PI3Kbeta % inh of 66.61%.
Turning to `O=C1N[C@@H](C(=O)O)[C@H](c2ccc(Cl)c(Cl)c2)c2cc(N3CCOCC3)sc21` (relative stereo) [Compound 142, rel-(4R,5R)-4-(3,4-dichlorophenyl)-2-(morpholin-4-yl)-7-oxo-4,5,6,7-tetrahydrothieno[2,3-c]pyridine-5-carboxylic acid], the values for the inhibition at 1.11 µM in assay [1] and in assay [2] were 16.7% and 72%, respectively.
As for `CCNC(=O)[C@@H]1NC(=O)c2sc(N3CCOCC3)cc2[C@H]1c1ccc(Cl)cc1` [Compound 203], in assay [1], the PI3Kalpha % inh amounted to 40.46%. In assay [2], this compound had a PI3Kbeta % inh of 66.37%.
Turning to `CNC(=O)[C@@H]1NC(=O)c2sc(N3CCOCC3)cc2[C@H]1c1ccc(Cl)cc1` [Compound 212], the PI3Kalpha % inh in assay [1] is on record as 54.25%. This compound came in with a PI3Kbeta % inh in assay [2] of 65.59%.
In the case of `N#Cc1c(N2CCOCC2)sc2c1C(c1ccc3ccccc3c1)CNC2=O` (stereo not shown) [Compound 135, 2-(morpholin-4-yl)-4-(2-naphthyl)-7-oxo-4,5,6,7-tetrahydrothieno[2,3-c]pyridine-3-carbonitrile], the inhibition at 1.11 µM in assay [1] worked out at 89.8%; in assay [2], 121%.
As to `CNC(=O)[C@@H]1NC(=O)c2sc(C3=CCOCC3)cc2[C@H]1c1ccc(Cl)cc1` [Compound 121], the PI3Kalpha % inh in assay [1] turned out to be 40.77%. Further, in assay [2], the PI3Kbeta % inh is on record as 104.98%.
`COC(=O)c1[nH]c(=O)c2sc(N3CCOCC3)cc2c1-c1ccc(Cl)c(Cl)c1` [Compound 184, methyl 4-(3,4-dichlorophenyl)-2-(morpholin-4-yl)-7-oxo-6,7-dihydrothieno[2,3-c]pyridine-5-carboxylate]: the inhibition at 1.11 µM was found to be 6.62% in assay [1] and 77.5% in assay [2].
Taken in the same sequence, the figures for `O=C1NCC(c2ccc(Cl)cc2)c2c1sc(N1CCOCC1)c2C#Cc1ccccc1` (single isomer, unassigned) [Compound 137, 4-(4-chlorophenyl)-2-(morpholin-4-yl)-3-(phenylethynyl)-5,6-dihydrothieno[2,3-c]pyridin-7(4H)-one] were 16.1% and 80.8%.
As for `Cc1cc(-c2nc3c(s2)C(=O)NCC3c2ccc3ccccc3c2)ccn1` (stereo not shown) [Compound 179], the inhibition at 1.11 µM is 21.6% in assay [1] and 107% in assay [2].
Consider `CNC(=O)[C@H]1NC(=O)c2sc(N3CCOCC3)cc2[C@H]1c1ccc(Cl)cc1` [Compound 157], for which the results for the inhibition at 1.11 µM in assay [1] and in assay [2] were 30.1% and 111%, respectively.
Turning to `O=C1NCCC(c2ccc3ccccc3c2)c2nc(N3CCOCC3)sc21` (stereo not shown) [Compound 131], the PI3Kalpha % inh in assay [1] was 9.87%. The PI3Kbeta % inh in assay [2] stood at 85.03%.
Turning to `C=Cc1c(N2CCOCC2)sc2c1C(c1ccc(Cl)cc1)CNC2=O` (single isomer, unassigned) [Compound 143, 4-(4-chlorophenyl)-2-(morpholin-4-yl)-3-vinyl-5,6-dihydrothieno[2,3-c]pyridin-7(4H)-one], the inhibition at 1.11 µM turned out to be 10% in assay [1] and 82.5% in assay [2].
On to `C=CCC1(C(=O)OC)NC(=O)c2sc(N3CCOCC3)cc2C1c1ccc(Cl)c(Cl)c1` (stereo not shown) [Compound 154, methyl 5-allyl-4-(3,4-dichlorophenyl)-2-(morpholin-4-yl)-7-oxo-4,5,6,7-tetrahydrothieno[2,3-c]pyridine-5-carboxylate], for which the inhibition at 1.11 µM in assay [1] was 10.9%; in assay [2], 75.5%.
As for `Cc1cc(C2CNC(=O)c3sc(N4CCOCC4)cc32)ccc1Cl` (stereo not shown) [Compound 205], the PI3Kalpha % inh in assay [1] is recorded as 28.04%. In assay [2], this compound returned a PI3Kbeta % inh of 96.83%.
In the case of `O=C1NCC(c2ccc(Cl)cc2)c2c1sc(N1CCOCC1)c2C#Cc1cccnc1` (stereo not shown) [Compound 122], the values for the inhibition at 1.11 µM in assay [1] and in assay [2] were 97.8% and 128%, respectively.
Consider `O=C1N[C@@H](C(=O)NCCO)[C@H](c2ccc(Cl)cc2)c2cc(N3CCOCC3)sc21` [Compound 204], for which, in assay [1], the PI3Kalpha % inh is reported as 51.34%. The compound also came in with a PI3Kbeta % inh in assay [2] of 60.14%.
What is called IC50 is the concentration that inhibits the measured activity by half. With `O=C1CCC(c2ccc(Cl)cc2)c2cc(-c3ccncc3)sc21` (single isomer, unassigned) [Compound 4, 4-(4-chlorophenyl)-2-pyridin-4-yl-5,6-dihydro-1-benzothiophen-7(4H)-one], the PI3Kalpha % inh in assay [1] is reported as −0.100%. In assay [2], this compound displayed a PI3Kbeta % inh of 14.400%. Also, the IC50 in assay [2] (read-out: IC50 (inhibit PI3Kbeta)) is > 1000 nM.
As to `O=C1NCC(c2ccc(Cl)cc2)c2cc(N3CCOCC3)sc21` (stereo not shown) [Compound 211], in assay [1], the inhibition at 1.11 µM amounted to 20.5%. Also, the PI3Kbeta % inh in assay [2] came to 62.33%.
In the case of `C=CCC1(C(=O)O)NC(=O)c2sc(N3CCOCC3)cc2C1c1ccc(Cl)c(Cl)c1` (stereo not shown) [Compound 196, 5-allyl-4-(3,4-dichlorophenyl)-2-(morpholin-4-yl)-7-oxo-4,5,6,7-tetrahydrothieno[2,3-c]pyridine-5-carboxylic acid], the inhibition at 1.11 µM stood at 13.7% in assay [1] and 84.3% in assay [2].
Taken in the same sequence, the figures for `CNC(=O)[C@@H]1NC(=O)c2sc(-c3ccncc3)cc2[C@H]1c1ccc(Cl)cc1` [Compound 206] were 41.8% and 58.5%.
On the same counts, the results for `O=C(O)CN1CC(c2ccc(Cl)cc2)c2cc(N3CCOCC3)sc2C1=O` (stereo not shown) [Compound 213, 2-(4-(4-chlorophenyl)-2-morpholino-7-oxo-4,5-dihydrothieno[2,3-c]pyridin-6(7H)-yl)acetic acid] are 5.63% and 99.3%.
On to `O=C1N[C@@H](CO)CC(c2ccc3ccccc3c2)c2nc(N3CCOCC3)sc21` (stereo partly shown) [Compound 202], for which the PI3Kalpha % inh in assay [1] came out at 88.75%. In addition, the PI3Kbeta % inh in assay [2] is 113.55%.
Regarding `O=C1NCC(c2ccc(Cl)c(Cl)c2)c2cc(N3CCOCC3)sc21` (stereo not shown) [Compound 208], the inhibition at 1.11 µM in assay [1] is 18.4%; in assay [2] it was 96.8%.
As to `O=Cc1c(N2CCOCC2)sc2c1C(c1ccc(Cl)cc1)CNC2=O` (single isomer, unassigned) [Compound 193, 4-(4-chlorophenyl)-2-(morpholin-4-yl)-7-oxo-4,5,6,7-tetrahydrothieno[2,3-c]pyridine-3-carbaldehyde], the inhibition at 1.11 µM is 11.1% in assay [1] and 79.1% in assay [2].
